The numbers were not newly measured in patent US20060251690A1, “Skin enrichment using CoQ10 as the delivery system” (Zymes, LLC, priority 2005, published 2006), which cites them from elsewhere.

Structures are written as SMILES. Where two headings read alike, the source gives them in different places.

Test in data set [1]: not given
The source holds these as a separate data set.

The conditions of data set [2]: after chronic topical use, combined with other fat and water soluble ingredients.
For data set [3] the following is noted: human skin (in vitro).
Test in data set [4]: not given
The source holds these as a separate data set.

Take `COC1=C(OC)C(=O)C(C/C=C(\C)CC/C=C(\C)CC/C=C(\C)CC/C=C(\C)CC/C=C(\C)CC/C=C(\C)CC/C=C(\C)CC/C=C(\C)CC/C=C(\C)CCC=C(C)C)=C(C)C1=O` [CoQ10, 2,3 dimethoxy-5 methyl-6 decaprenyl benzoquinone]: the half life is given as above 30 h.

`COc1ccc(-c2ccc3cc(C(=O)O)ccc3c2)cc1C12CC3CC(CC(C3)C1)C2` [adapalene]: the “solubility in polar solvents such as ethanol” value in data set [1] (ethanol) is listed as “only sparingly soluble”. Moreover, in data set [1] (water), the solubility in water entry is given as “virtually insoluble”. The absorption of adapalene in data set [2] is on record as below 0.25 ng/mL.

Take `O=C(O)CCCCCCCC(=O)O` [azelaic acid]: the “applied dose found in the epidermis and dermis” value in data set [3] was “Up to 10%”. For the same molecule, in data set [4], the half-life after application is 12 h.

Turning to `O=C1O[C@H]([C@@H](O)CO)C(O)=C1O` [vitamin C], the half life (autoxidation named as cause) was 0.5 h.
